Measurements: patent publication US9284368B2, “Substituted pyrazines as cadherin-11 inhibitors” (Georgetown University, priority 2009, dated 2016)
“Also recorded” adds a separate entry of the source.

Key:
Cytotoxicity in vitro = type: cell-based; settings: up to a 100 μM dosage in vitro
[1] = tested on: MDA-MB-231 breast cancer cells; test: Soft agar colony growth assay; type: cell-based; settings: MDA-MB-231 cells, 100 nM
Description: To further characterize proliferative ability of cancer cells lacking cadherin-11, anchorage independent growth was studied in the stable cell lines. 6-well tissue culture dishes were coated with 1.2 mL 0.6% Bacto-agar (Difco; Franklin Lakes, N.J.) in DMEM supplemented with 5% fetal bovine serum. Once set, the cells were plated in triplicate in 0.3% agar (15,000/1 mL in each well) and layered gently on top of the coated agar. The plates were incubated for 10 days to 2 weeks prior to reading using a colony counter (Omnicon; Manassas, Va.) and visualized using a SMZ-1500 stereoscope (Nikon; Tokyo, JP).
(§1) For luminescence, the cells were plated in triplicate in 24-well white-walled tissue culture dishes (Wallac; Waltham, Mass.) as described above. On the final day, cells were resuspended in an equal volume of Cell-Titer-Glo Luminescence Reagent (Promega; Madison, Wis.), which measures ATP, and incubated for 20 min at room temperature. The assay was measured using luminescence.
Cells (5,000) were plated in 0.3% agar layered on top of 0.6% agar in 35-mm^2 plates. After 2 weeks, the colonies were counted in an Omnicon 3600 automated colony counter (BioLogics, Inc.; Manassas, Va.) and visualized using a SMZ-1500 stereoscope (Nikon; Tokyo, JP). Confirmation assays were completed in 24-well dishes and analyzed using Cell-Titer-Glo Reagent (see proliferation assays).

[2] = tested on: MDA-MB-231 breast cancer cells; test: Matrigel outgrowth (invasion) assay; type: cell-based; settings: MDA-MB-231 cells, 100 nM
Description: (§2) Upon finding significant differences in growth and migration in cancer cells with reduced cadherin-11 expression, invasive capability of the stable cell lines was explored in a 3-dimensional matrix. The cells were plated in duplicate in a 12-well glass-bottom dish (MatTek; Ashland, Mass.) coated with 150 μL of Matrigel (BD Biosciences; San Jose, Calif.). The cells (5,000 cells/100 μl medium) were gently plated on top of the Matrigel layer directly and incubated 30 min at 37° C. Growth medium (1 mL) was gently added to each well, and growth was visualized using a 5× objective on an AH2 Vanox inverted microscope (Olympus; Tokyo, JP) equipped with a CCD camera.
(§3) Cells (5,000 cells/100 μl medium) were plated atop 150 μL layer of Matrigel (BD Biosciences; San Jose, Calif.) in duplicate in 12-well glass-bottom dishes (MatTek; Ashland, Mass.) and incubated for 30 minutes at 37° C. Growth medium (1 mL) was gently added to each well. Growth was visualized using a 5× objective on AH2 Vanox inverted microscope (Olympus; Tokyo, JP).

[3] = tested on: MDA-MB-435 melanoma cells; test: Matrigel outgrowth (invasion) assay; type: cell-based; settings: MDA-MB-435 melanoma cells (expressing N-cadherin), 1 μM and 10 μM
Description: as §2, §3

MCF7 breast cancer cells [4] = test: Matrigel outgrowth (invasion) assay; type: cell-based; settings: MCF7 breast cancer cells (expressing E and P-cadherin), 1 μM and 10 μM
Description: as §2, §3

[5] = tested on: PC-3 prostate cancer cells; test: Growth phenotypes in PC-3 cells; type: cell-based
cadherin-11 = target: T1, cadherin-11 (Homo sapiens, UniProt P55287); test: Initial functional screening of in silico hits for block of cadherin-11 function; type: cell-based; settings: in vitro screening of commercially purchased in silico hits
T1 construct: Endogenous cadherin-11 expression in MDA-MB-231 breast and PC-3 prostate cancer cells was knocked down; endogenous in cells; host or cells: MDA-MB-231 breast cancer cells (PC-3 partly)
T1 sequence (P55287 54-796): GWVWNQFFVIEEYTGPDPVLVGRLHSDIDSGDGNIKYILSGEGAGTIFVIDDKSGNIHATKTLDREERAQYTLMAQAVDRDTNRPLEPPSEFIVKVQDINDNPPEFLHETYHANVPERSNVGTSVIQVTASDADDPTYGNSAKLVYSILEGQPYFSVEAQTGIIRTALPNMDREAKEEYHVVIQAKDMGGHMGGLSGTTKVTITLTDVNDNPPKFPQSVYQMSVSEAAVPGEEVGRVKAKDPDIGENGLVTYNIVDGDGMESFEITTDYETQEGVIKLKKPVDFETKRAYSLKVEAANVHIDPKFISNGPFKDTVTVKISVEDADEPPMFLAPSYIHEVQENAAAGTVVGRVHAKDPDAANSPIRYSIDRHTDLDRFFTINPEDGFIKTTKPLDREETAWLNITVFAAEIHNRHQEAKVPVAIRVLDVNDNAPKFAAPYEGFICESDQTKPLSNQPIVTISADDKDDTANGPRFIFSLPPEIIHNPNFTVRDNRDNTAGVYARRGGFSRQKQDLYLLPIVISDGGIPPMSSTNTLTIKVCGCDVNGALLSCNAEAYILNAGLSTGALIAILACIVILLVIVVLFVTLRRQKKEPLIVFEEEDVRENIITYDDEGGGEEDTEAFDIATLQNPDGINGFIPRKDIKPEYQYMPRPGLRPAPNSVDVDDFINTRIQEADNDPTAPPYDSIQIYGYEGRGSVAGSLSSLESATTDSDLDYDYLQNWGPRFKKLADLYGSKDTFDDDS
Description: These two pharmacophores were further refined and screened again to maximize solubility and then retested using various in vitro assays. […] Finally, it was also observed that the compound was not cytotoxic up to a 100 μM dosage in vitro, as well as a pilot study in nude mice.
Cadherin-11 association with certain poor prognosis cancers, proliferation of basal-type breast cancer cells, and tumorigenesis in mice make it a viable therapeutic target for these malignancies. […] A computer-based method of structural modeling was used to predict conformations capable of binding these specific hydrophobic pockets. The ectodomain1 (EC1) dimer adhesive interface is formed by exchange of N-terminal β strands between two cadherin-11 molecules. The dimer interface has a large hydrophobic region (unique to type II cadherins) with two conserved tryptophan residues. […] This structure was used to base molecular simulations and produce pharmacophores designed to block one or both of the two adjacent regions (P1 and P2) predicted necessary for cadherin-11 function in cell-cell adhesion. Three in-silico strategies were implemented: 1) generation of flexible receptor conformations, 2) receptor-based dynamic pharmacophore screening and 3) small molecule docking simulations. The 29 most promising candidates identified by in silico screen were subjected to free energy simulations at 100 picosecond intervals, taking into consideration the induced fit effect, which accounts for conformation flexibility both before and after binding/docking simulations. […] These 29 compounds were purchased commercially and tested. Many of the compounds initially screened inhibited cadherin-11 function at 10 μM range, attesting to the in silico screening efficiency. […] The potency of Compound 1 likely stems from its shape and moderate structural flexibility, enabling it to accommodate to and bind tightly within the tryptophan binding pocket. Though this pocket is largely hydrophobic, a network of hydrogen bonds between Compound 1 and R23, H25, P88, S90 confers specificity and rigid binding. […]

[6] = tested on: MDA-MB-231 breast cancer cells; test: Proliferation assay (crystal violet / luminescence); type: cell-based; settings: MDA-MB-231 cells, 100 nM
Description: (§4) For crystal violet assays, cells were plated in triplicate in 96-well tissue culture dishes at 4 separate densities. Cells were grown in DMEM supplemented with 5% fetal bovine serum for a period of 5 days. Dishes representing growth were stained with crystal violet on Days 1, 3 and 5 after plating, by removing growth medium, staining with 50 μL of crystal violet stain for 10 min, then gently washing in dH2O and allowing to dry overnight. Stained cells were solubilized in 100 μL 50/50 (v/v) 0.1M sodium citrate and ethanol for 15 min, and absorbance was read at 630λ.
as §1, with “and grown in DMEM supplemented with 5% fetal bovine serum for 5 days.” for “as described above.”, “fifth” for “final”, “day, the” for “day,”
(§5) Cells were plated in triplicate at four separate densities and grown in DMEM with 5% FBS for five days. Cells were stained with crystal violet on days 1, 3, and 5 after plating, as described in Example 5. Absorbance was read at 630λ using a BioRad Ultramark Microplate Imaging System with Microplate Manager 5.1 software. […]

[7] = tested on: MDA-MB-435 melanoma cells; test: Proliferation assay; type: cell-based; settings: MDA-MB-435 melanoma cells (expressing N-cadherin), 1 μM and 10 μM
Description: as §4
as §1, with “and grown in DMEM supplemented with 5% fetal bovine serum for 5 days.” for “as described above.”, “fifth” for “final”, “day, the” for “day,”
as §5

MCF7 breast cancer cells [8] = test: Proliferation assay; type: cell-based; settings: MCF7 breast cancer cells (expressing E and P-cadherin), 1 μM and 10 μM
Description: as §4
as §1, with “and grown in DMEM supplemented with 5% fetal bovine serum for 5 days.” for “as described above.”, “fifth” for “final”, “day, the” for “day,”
as §5

[9] = In vivo acute toxicity (OECD Up-and-Down Procedure); settings: mouse, female Balb/c mice, IP injection, observed for 14 days
Description: Female Balb/c mice, 8-12 weeks old, were obtained from the National Cancer Institute (Bethesda, Md.). A stock solution of 200 mg/ml of Compound 1 was prepared with a 1:1 ratio of DMSO and PEG. The working solution was diluted with PEG. Compound 1 (Sd-133) was administered at a constant volume (0.01 ml/1 g body weight) over the range of doses to be tested by varying the concentration of the dosing preparation according to the OECD Acute Toxicity-Up-and Down Procedure. […] Observations included toxicity onset time, symptoms, duration and the time elapsed for recovery or death. Based on the study, the LD50 of Compound 1 was estimated at 2000 mg/kg.

nude mice = test: Pilot toxicity study in nude mice; type: in vivo
[10] = tested on: L-cells with stably-transfected cadherin-11; test: Cell aggregation assay, cadherin-11 transfected L-cells; type: cell-based; settings: cadherin-11 L-cells, shaken one hour at 100 rpm
Description: (§6) Cell aggregation assays were performed on L-cells with stably-transfected empty vector or cadherin-11. The cells were seeded and grown overnight, trypsinized with additional EDTA, resuspended in DMEM with 20% FBS, and counted. The cells were spun down and resuspended in DMEM containing no treatment, 0.5 mM EDTA, 0.25 mM EDTA, 0.1 mM EDTA, or cadherin-11 inhibitors including 1 TM of Compound 1 (Sd-133), 1 TM of Compound 2 (Sd-133A), 1 TM of Compound 3 (Sd-133B), 1 TM of Compound 11 (Sd-12), 1 TM of Compound 12 (Sd-48), 1 TM of Compound 17 (Sd-20), 1 TM of Compound 18 (Sd-51), 1 TM of Compound 19 (Sd-22), or 1 TM of Compound 20 (Sd-23). The cells were allowed to recover for one hour and were then put into uncoated 12 well plates and shaken for one hour at 100 rpm at 2.25×10^5 cells/mL. The cells were then counted using Microsizer Coulter Counter (Beckman Coulter, Inc; Brea, Calif.). Counts over 20 uM in length were considered aggregates, while counts below 20 uM were considered as single cells. The counts were confirmed by manual counting.

[11] = tested on: L-cells with stably-transfected empty vector; test: Cell aggregation assay, empty vector L-cells; type: cell-based; settings: shaken one hour at 100 rpm
Description: as §6

SMILES: Oc1ccc(-c2cccnc2-c2ccccc2)cc1 [Compound 1]
- cytotoxicity (Cytotoxicity in vitro): not cytotoxic
- colony growth [1]: significantly blocked; also recorded: significantly inhibited
- invasion [2]: significantly blocked; also recorded: significantly inhibited
- invasion [3]: fails to block; also recorded: failed to alter
- invasion (MCF7 breast cancer cells [4]): fails to block; also recorded: failed to alter
- growth phenotypes [5]: partially inhibited
- concentration range at which cadherin-11 is functionally blocked (effective range) (cadherin-11): nanomolar ranges
- cell proliferation [6]: significantly blocked; also recorded: significantly inhibited
- proliferation [7]: fails to block; also recorded: failed to alter
- proliferation (MCF7 breast cancer cells [8]): fails to block; also recorded: failed to alter
- LD50 at 14 days [9]: 2000 mg/kg
- cytotoxicity (nude mice): not cytotoxic

SMILES: Oc1ccc(-c2nc3ccccc3nc2-c2cccc(Cl)c2)cc1 [Compound 2]
- aggregate formation [10]: decrease
- aggregate formation [11]: remained stable

SMILES: Oc1ccc(-c2nc3ccccc3nc2-c2ccccc2)cc1 [Compound 3]
- aggregate formation [10]: decrease
- aggregate formation [11]: remained stable

SMILES: O=C1c2ccccc2C(=O)c2c1oc1ccc3ccccc3c21 [Compound 9]
- concentration range at which cadherin-11 is functionally blocked (effective range) (cadherin-11): nanomolar ranges

SMILES: Oc1ccc2c(c1)c1ccccc1c1ncccc21 [Compound 10]
- concentration range at which cadherin-11 is functionally blocked (effective range) (cadherin-11): nanomolar ranges
